Source: patent US5719135A, “Substituted 3-arylidene-7-azaoxindole compounds and process for their preparation” (Pharmacia S.p.A., priority 1994, dated 1998)

Legend:
K562 cells = test: K562 Cell Growth Inhibition Assay; assay type: cell-based; conditions: human chronic myeloid leukemia K562 cells, 72 h, 10000/well
Description: K562 Cell Growth Inhibition Assay
K562 cells, a human myelogenous leukemia cell line, were seeded into a 24 wells tissue culture plate (Falcon 3047) (10000/well) in the presence of increasing concentrations of the compounds. After 72 h, cells were harvested and were counted using a cell counter (Coulter Counter-ZM). The percent of inhibition was evaluated in respect to the untreated control cells.
(§1) The inhibitory activity data for a representative group of compounds according to the present invention, obtained both in the in-vitro p45 v-abl kinase assay and in the […] human chronic myeloid leukemia K562 cell growth inhibition assay described above, are set out in the following Table I.

[1] = biological target: p45 v-abl tyrosine kinase; test: p45 v-abl Kinase Assay; assay type: biochemical, Abelson murine leukemia virus; conditions: in-vitro; (Val^5)-Angiotensin II peptide 2 mM, ATP 50 μM, pH 8.0, 30° C.
Description: p45 v-abl Kinase Purification
The enzyme used in our tests was the p45 v-abl tyrosine kinase which represents the catalytic domain of the Abelson tyrosine kinase (isolated form the Abelson murine leukemia virus). The p45 v-abl kinase was produced and isolated as described by Wang at al. in J. Biol. Chem. 260, 64 (1985) and by Ferguson et al. in J. Biol. Chem. 260, 3652 (1985) and in Biochem. J. 257, 321 (1989).
(Val^5)-Angiotensin II phosphorylation was performed by incubation with 40 ng of purified abl-kinase and (γ^32 -p)ATP, in 50 μl of buffer containing Tris-Hcl 25 mM, pH 8.0. MgCl2 10 mM and dithiothreitol 0.1 mM (kinase buffer). The reaction mixture was incubated for the indicated time at 30° C. and the reaction stopped by adding 50 μl of 5% trichloroacetic acid. After a brief incubation on ice, tubes were centrifuged. The supernatants were spotted on phosphocellulose paper squares (Whatman P-81) and washed extensively in acetic acid. The radioactivity bound to dried phosphocellulose squares was measured in a liquid scintillation counter. IC50 values were calculated from triplicated determinations of each experimental point. Each inhibitor was tested at concentrations ranging from […] in the presence of fixed concentrations of peptide (2 mM) and ATP (50 μM.
as §1

What does the source list for `O=C1Nc2ncccc2C1=Cc1cc(O)c2c(c1O)CCCC2` [3-[(1,4-dihydroxy-5,6,7,8-tetrahydronaphth-2-yl)methylene]-7-azaoxindole]?
IC50 (K562 cells): 2360 nM; IC50 [1]: 2140 nM

`Cc1[nH]c2ccccc2c1C=C1C(=O)Nc2ncccc21` [3-[(2-methyl-3-indolyl)methylene]-7-azaoxindole] was tested. Which IC50 (K562 cells) did it give?
The IC50 was 2610 nM.

What about the IC50 [1] of the same compound?
The IC50 was 40 nM.

Which IC50 (K562 cells) does the source give for `COc1ccc2[nH]cc(C=C3C(=O)Nc4ncccc43)c2c1` [3-[(5-methoxy-3-indolyl)methylene]-7-azaoxindole] here?
The IC50 was 3210 nM.

And the IC50 [1]?
The IC50 was 30 nM.

How did the IC50 (K562 cells) turn out when `O=C1Nc2ncccc2C1=Cc1c[nH]c2ncccc12` [3-[(7-azaindol-3-yl)methylene]-7-azaoxindole] was run?
Its IC50 is 3890 nM.
